Where “and” joins values, the source holds several entries; their conditions need not be identical. Identical values can stand only once. Numbered stars: 1 amine (or outer) side, 2 acyl side, 3 side chain; on linkers, the order of the positions; unused ones are H or OH. Bridge positions count the residues as written; N and C are the ends. Square brackets hold non-standard residues; d marks the D form. Peptide text beside a SMILES is read from it. I, II: the chains in the order shown. ξ: configuration not given here. Phe(4-tBu) = CC(C)(C)c1ccc(C[C@H](N)C(=O)O)cc1; Diglycolyl = O=C(COCC(=O)[*:2])[*:1]; NMeR = CN[C@@H](CCCNC(=N)N)C(=O)O; β3hE = N[C@@H](CCC(=O)O)CC(=O)O; Thr(3ξ) = CC(O)[C@H](N)C(=O)O; X1 = O=C(c1ccccc1C[*:2])[*:1]; Pen = CC(C)(S)[C@H](N)C(=O)O
What was measured:
[1] = Study 1 pharmacokinetics in healthy male volunteers (liquid solution); conditions: for half-life: oral, terminal half-life; for dose excreted: urine, recovered intact in urine over 24 hours, multiple dose
Description: (§1) Dose escalation proceeded from 100 mg, 300 mg, 1000 mg, 1400 mg. Subjects in the 300 mg dose cohort received treatment in the fasted state on one occasion and following a high fat meal on a second occasion in a crossover fashion. The high fat meal consisted of two eggs fried in butter, two strips of bacon, two slices of toast with butter, four ounces of hash brown potatoes and 240 ml of whole milk. During Part 1, subjects refrained from food and drink except water for 10 hours before and for four hours after dosing with the exception of subjects in the 300 mg dose cohort during the fed treatment.
(§2) Part 2 was a randomized, placebo-controlled, double-blind multiple ascending dose study in 50 male subjects divided equally into 5 cohorts. […] Doses evaluated in Part 2 included 100 mg, 300 mg and 1000 mg. During Part 2, two cohorts of subjects (100 mg and 300 mg) received food approximately 30 minutes prior to each dose and another two cohorts of subjects (300 mg and 100 mg) refrained from food for 10 hours before and for 1 hour after dosing.
(§3) Study 1: The single and multiple ascending dose phase of the study consisted of sequential dose escalations in 10 subject per dose cohort. […] Dose solutions were formulated in 50 mM phosphate buffer pH 7.4 and were prepared weekly by a qualified pharmacist.
(§4) Blood samples for pharmacokinetics were collected predose and for 48 hours postdose following single doses. In the multiple ascending dose phase, blood samples were obtained on Days 1-3 and 14-16; on Days 8 samples were obtained predose, 4, and 12 hours. On Day 10 of the MAD, subjects were required to collect all urine for the 0-6, 6-12, 12-18, and 18-24 hour intervals postdose and on Day 11 subjects were required to collect fecal samples.
(§5) The drug and internal standard were extracted from the matrix by a protein precipitation procedure. The limit of quantitation was 0.2 ng/mL, 20 ng/mL, and 100 ng/mL in plasma, urine, and feces, respectively. […] Coefficient of determinations for the calibration curves were at least 0.99 for all matrices. The interassay accuracy (% bias) ranged from −2.2% to 1.0% for plasma, −3.8% to 9.0% for urine and −5.0 to 5.2% for feces. Interassay precision (% CV) ranged from 3.7% to 7.7% for plasma, 2.8% to 7.0% for urine, and 1.2% to 5.2% for feces.
(§6) Pharmacokinetic parameters were estimated by noncompartmental methods using Phoenix WinNonlin (Certara, Princeton N.J.). Peak plasma concentration (Cmax) and time to peak plasma concentration (Tmax) were observed values. The elimination rate was estimated from the slope of the least-squares regression on the terminal log-linear phase. Area under the plasma concentration-time curve from time zero to the last quantifiable concentration (AUCt) was estimated by a linear trapezoidal method and was extrapolated to infinity (AUC∞) by dividing the last quantifiable concentration b the elimination rate.

[2] = target: T1, memory CD4+ T cells expressing α4β7 / recombinant MAdCAM1 (Homo sapiens, UniProt P13612+P26010); assay: Potency against memory CD4+ T cells expressing α4β7 to recombinant MAdCAM1; format: cell-based; conditions: cells isolated from human PBMCs
T1 construct: endogenous in cells
T1 sequence (P13612 34-1032): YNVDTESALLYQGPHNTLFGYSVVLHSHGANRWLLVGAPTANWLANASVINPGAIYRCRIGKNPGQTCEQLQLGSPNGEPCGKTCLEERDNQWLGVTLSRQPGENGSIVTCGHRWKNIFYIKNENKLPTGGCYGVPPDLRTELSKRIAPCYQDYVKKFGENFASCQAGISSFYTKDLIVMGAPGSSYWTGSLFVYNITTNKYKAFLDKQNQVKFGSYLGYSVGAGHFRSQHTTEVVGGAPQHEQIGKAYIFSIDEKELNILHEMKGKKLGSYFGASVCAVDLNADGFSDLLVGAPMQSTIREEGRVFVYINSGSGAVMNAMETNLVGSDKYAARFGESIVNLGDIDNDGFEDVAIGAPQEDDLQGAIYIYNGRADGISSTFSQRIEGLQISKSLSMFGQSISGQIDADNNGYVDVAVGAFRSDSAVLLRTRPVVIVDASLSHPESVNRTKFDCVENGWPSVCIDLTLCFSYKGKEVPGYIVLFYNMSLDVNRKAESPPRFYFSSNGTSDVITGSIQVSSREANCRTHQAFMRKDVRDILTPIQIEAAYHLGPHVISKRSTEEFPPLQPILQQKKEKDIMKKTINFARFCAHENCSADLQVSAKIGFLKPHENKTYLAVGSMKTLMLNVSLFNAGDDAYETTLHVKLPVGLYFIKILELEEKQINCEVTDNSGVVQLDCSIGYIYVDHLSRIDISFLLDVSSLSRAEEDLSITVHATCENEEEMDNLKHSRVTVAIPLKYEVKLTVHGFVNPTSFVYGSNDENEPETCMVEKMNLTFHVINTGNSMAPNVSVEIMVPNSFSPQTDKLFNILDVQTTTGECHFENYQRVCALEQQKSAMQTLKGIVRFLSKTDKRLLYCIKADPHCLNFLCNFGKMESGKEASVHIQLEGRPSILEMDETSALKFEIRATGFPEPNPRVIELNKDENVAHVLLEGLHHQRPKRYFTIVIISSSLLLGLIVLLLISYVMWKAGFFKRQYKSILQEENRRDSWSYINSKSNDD
T1 sequence (P26010 20-798): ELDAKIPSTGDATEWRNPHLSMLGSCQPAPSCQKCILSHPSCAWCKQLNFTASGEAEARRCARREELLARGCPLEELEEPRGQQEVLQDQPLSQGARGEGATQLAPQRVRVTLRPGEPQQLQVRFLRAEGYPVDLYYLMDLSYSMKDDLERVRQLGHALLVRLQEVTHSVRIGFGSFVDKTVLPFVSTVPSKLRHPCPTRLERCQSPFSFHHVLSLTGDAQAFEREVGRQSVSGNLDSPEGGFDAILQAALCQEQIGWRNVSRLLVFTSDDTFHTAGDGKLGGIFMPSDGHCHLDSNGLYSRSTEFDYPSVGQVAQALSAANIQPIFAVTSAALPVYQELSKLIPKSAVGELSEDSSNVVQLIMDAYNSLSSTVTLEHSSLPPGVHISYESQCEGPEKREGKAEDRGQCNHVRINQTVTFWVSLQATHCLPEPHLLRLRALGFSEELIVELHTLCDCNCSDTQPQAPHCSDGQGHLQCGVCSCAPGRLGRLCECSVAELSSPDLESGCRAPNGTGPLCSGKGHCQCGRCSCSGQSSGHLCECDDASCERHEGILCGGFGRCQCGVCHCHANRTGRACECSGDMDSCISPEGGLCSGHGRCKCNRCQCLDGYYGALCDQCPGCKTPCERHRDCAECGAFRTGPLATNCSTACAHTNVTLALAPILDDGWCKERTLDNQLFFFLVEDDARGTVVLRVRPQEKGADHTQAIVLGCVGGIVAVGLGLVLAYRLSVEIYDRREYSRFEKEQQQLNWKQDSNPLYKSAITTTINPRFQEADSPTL

clinical = conditions: male, human, in vivo; for AUC(0-inf): AUCinf (ng · h/mL); for AUC(0-t): AUCt (ng · h/mL); for AUC: AUCtau (ng · h/mL); for Cmax: Cmax (ng/mL)
Description: as §1, §2, §3, §4, §5, §6

α4β7 [3] = target: T2, α4β7 (Mus musculus, UniProt P26011+Q00651); assay: α4β7 receptor occupancy in whole blood and Peyer's patches after oral dosing; format: in vivo, C57BL/6 mice
T2 construct: mice were euthanized and whole blood/plasma and Peyer's patches were collected; from tissue; host or cells: whole blood and Peyer's patches of C57BL/6 mice
T2 sequence (Q00651 41-1039): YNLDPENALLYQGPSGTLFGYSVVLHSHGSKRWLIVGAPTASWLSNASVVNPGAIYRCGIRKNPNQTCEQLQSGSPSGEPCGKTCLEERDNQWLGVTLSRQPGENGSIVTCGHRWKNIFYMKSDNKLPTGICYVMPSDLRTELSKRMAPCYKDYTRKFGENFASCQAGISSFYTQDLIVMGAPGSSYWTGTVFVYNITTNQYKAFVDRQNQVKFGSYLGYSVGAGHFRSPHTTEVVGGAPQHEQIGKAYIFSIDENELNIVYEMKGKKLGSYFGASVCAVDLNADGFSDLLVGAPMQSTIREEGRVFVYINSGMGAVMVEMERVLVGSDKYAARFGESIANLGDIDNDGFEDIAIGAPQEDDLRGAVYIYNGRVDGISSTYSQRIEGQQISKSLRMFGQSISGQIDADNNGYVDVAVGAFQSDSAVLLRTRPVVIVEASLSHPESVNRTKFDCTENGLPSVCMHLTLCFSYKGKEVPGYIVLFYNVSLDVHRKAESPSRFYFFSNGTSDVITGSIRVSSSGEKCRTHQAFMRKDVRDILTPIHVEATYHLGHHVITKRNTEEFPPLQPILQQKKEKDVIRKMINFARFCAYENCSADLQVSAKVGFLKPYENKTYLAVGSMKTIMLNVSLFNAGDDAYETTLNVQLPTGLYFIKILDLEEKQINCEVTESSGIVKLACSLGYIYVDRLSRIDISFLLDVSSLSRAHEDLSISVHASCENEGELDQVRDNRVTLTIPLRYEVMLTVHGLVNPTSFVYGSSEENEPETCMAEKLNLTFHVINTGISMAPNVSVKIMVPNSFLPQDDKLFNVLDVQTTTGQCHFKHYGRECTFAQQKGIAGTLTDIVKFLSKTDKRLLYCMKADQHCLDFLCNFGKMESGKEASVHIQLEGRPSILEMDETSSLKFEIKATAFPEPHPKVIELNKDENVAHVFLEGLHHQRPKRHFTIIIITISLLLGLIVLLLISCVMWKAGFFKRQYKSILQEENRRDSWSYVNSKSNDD
T2 sequence (P26011 20-806): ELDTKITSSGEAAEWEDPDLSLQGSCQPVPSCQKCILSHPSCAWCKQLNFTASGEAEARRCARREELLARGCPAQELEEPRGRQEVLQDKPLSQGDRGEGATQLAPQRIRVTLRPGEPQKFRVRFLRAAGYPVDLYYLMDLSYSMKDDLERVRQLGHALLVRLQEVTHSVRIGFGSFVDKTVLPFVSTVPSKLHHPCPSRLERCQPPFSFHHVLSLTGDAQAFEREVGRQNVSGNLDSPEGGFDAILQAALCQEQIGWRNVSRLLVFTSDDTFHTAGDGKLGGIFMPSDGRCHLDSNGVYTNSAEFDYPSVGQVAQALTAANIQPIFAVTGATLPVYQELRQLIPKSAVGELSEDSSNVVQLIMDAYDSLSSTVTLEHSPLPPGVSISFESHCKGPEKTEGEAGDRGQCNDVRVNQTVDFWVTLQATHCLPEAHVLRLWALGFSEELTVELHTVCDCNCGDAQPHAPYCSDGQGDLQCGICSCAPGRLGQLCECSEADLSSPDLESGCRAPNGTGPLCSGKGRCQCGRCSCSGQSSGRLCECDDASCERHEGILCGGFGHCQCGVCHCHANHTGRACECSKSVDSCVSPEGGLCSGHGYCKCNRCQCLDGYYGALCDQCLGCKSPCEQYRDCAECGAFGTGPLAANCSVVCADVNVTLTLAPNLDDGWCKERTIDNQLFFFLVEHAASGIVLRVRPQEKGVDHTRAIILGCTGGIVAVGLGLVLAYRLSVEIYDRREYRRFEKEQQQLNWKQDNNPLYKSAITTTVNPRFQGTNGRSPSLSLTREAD
Description: One hour following dosing, mice were euthanized and whole blood/plasma and Peyer's patches were collected. Peyer's patches were dispersed in 1 mL RPMI medium with 2% FBS without washing step. Whole blood and single cell suspension of Peyer's patches (100 uL out of 1 mL total) were submitted for flow cytometry to determine α4β7 receptor occupancy. % RO=(1−(% positive test sample/% positive median vehicle control))*100. Plasma and Peyer's patches dispersed in single cell suspension (500 uL of 1 mL total) were also analyzed for drug exposure.

[4] = Safety and tolerability in healthy volunteers; conditions: for tolerability: single and multiple oral doses
α4β7 [5] = target: T3, α4β7 (Homo sapiens, UniProt P13612+P26010); assay: α4β7 internalization / surface expression by flow cytometry; format: cell-based
T3 construct: endogenous in cells
T3 sequence (P13612 34-1032): as the sequence (P13612 34-1032) above
T3 sequence (P26010 20-798): as the sequence (P26010 20-798) above
Text: Blood samples from human donors were obtained from the Stanford Blood Center (Stanford, Calif.) under an RB-approved research protocol. Blood was drawn into BD Vacutainer sodium heparin blood collection tubes (BD Biosciences, Cat #362753). Peripheral blood mononuclear cells (PBMCs) were isolated from blood using a SepMate-50 tube and LymphoPrep per the manufacturer's protocol. CD4^+ T memory cells were enriched after PBMC isolation, using an EasySep kit (StemCell Technologies) per the manufacturer's protocol.
After incubation, an aliquot of cells from each reaction was stained for α4β7 expression.
After incubation, cells were washed extensively to remove excess peptide. For each reaction, an aliquot of cells was stained for α4β7 expression, while a separate aliquot was tested for adhesion to MAdCAM1.
An aliquot of cells were collected before and 24 h post peptide addition and stained for α4β7 expression. Afterwards, cells were extensively washed to remove excess peptide and incubated in fresh complete culture medium (without MnCl2) for an additional seven days. On day 1, 2, 4, 5, and 7 days after peptide washout, aliquots were stained for α4β7 expression.
Following peptide incubation, an aliquot of each reaction was stained for surface expression of α4β7 in preparation for flow cytometry. Cells were stained at 4° C. for 30 minutes, washed twice in DPBS containing 0.5% BSA (PBS/BSA), incubated with streptavidin BV421 (diluted 1:1000) at 4° C. for 30 minutes, washed twice in PBS/BSA, and then resuspended in PBS/BSA for analysis. Where relevant, a “fluorescence minus one” (FMO) sample was used as the staining control.
Samples were analyzed by flow cytometry on a BD (Franklin Lakes, N.J.) FACSVerse flow cytometer equipped with the following lasers: 405 nm (violet), 488 nm (blue), 561 nm (yellow-green), and 640 nm (red). CD4^+ T memory cells were identified as CD4^+, […], CD197^+ lymphocytes. α4β7 expression within CD4^+ T memory cells was identified based on staining with the Vedolizumab BV421 complex; staining was analyzed using BD FACSuite software, version 1.0.5. Where applicable, values were normalized to no-peptide controls and expressed as percentages to permit assessment of changes in the indicated parameter. Data were plotted and analyzed using Prism software (version 7; GraphPad, La Jolla, Calif.).

Question: With `CC(C)C[C@@H]1NC(=O)[C@H](C(C)O)NC(=O)[C@H](CC(=O)O)NC(=O)[C@H](CO)NC(=O)[C@H](CCCNC(=N)N)N(C)C(=O)c2ccccc2CSC(C)(C)[C@@H](C(=O)N[C@@H](Cc2ccc(C(C)(C)C)cc2)C(=O)N[C@@H](CCC(=O)O)CC(=O)N[C@H](CCCCNC(=O)COCC(=O)NCCCC[C@@H](NC(=O)C[C@H](CCC(=O)O)NC(=O)[C@H](Cc2ccc(C(C)(C)C)cc2)NC(=O)[C@H]2NC(=O)[C@H](CC(C)C)NC(=O)[C@H](C(C)O)NC(=O)[C@H](CC(=O)O)NC(=O)[C@H](CO)NC(=O)[C@H](CCCNC(=N)N)N(C)C(=O)c3ccccc3CSC2(C)C)C(=O)O)C(=O)O)NC1=O` (stereo partly drawn) [Compound A, ((2-Benzyl)-(N-Me-R)-Ser-Asp-Thr-Leu-Pen-(Phe(4-tBlu))-(β-homo-Glu)-(D-Lys)-OH)2 (SEQ ID NO: 5) and linker-DIG diglycolic acid] (I: [NMeR]SD[Thr(3ξ)]L[Pen][Phe(4-tBu)][β3hE][dK]-OH / II: [NMeR]SD[Thr(3ξ)]L[Pen][Phe(4-tBu)][β3hE][dK]-OH; linker I:9-II:9 via Diglycolyl; linker I:N-I:6, II:N-II:6 via X1) as the compound, how does the half-life ([1]; male, human, plasma, fasted state) read?
Answer: Its half-life is 3.1 to 5.7 h.

Question: And the half-life ([1]; male, human, plasma, fed state)?
Answer: The half-life was 5.2 to 7.7 h.

Question: And the Tmax ([1]; male, human, plasma, po, 300 mg, median time to peak plasma concentration, single dose 300 mg, meal 30 minutes after dosing)?
Answer: The Tmax was 1 h.

Question: And the dose excreted ([1]; male, human, po, 300 mg, 300 mg fasted)?
Answer: The dose excreted was 0.028%.

Question: And the dose excreted ([1]; male, human, po, 300 mg, 300 mg fed)?
Answer: The dose excreted was 0.056%.

Question: What about the dose excreted ([1]; male, human, po, 1000 mg) of the same compound?
Answer: Its dose excreted is 0.056%.

Question: And the accumulation ([1]; once daily)?
Answer: Its accumulation is “approximately 0.9 fold”.

Question: What about the “median time to peak plasma concentration” value ([1]; single dose 300 mg, meal 60 minutes after dosing) of the same compound?
Answer: Its value is 2 h.

Question: What about the “median time to peak plasma concentration” value ([1]; single dose 300 mg, meal 90 minutes after dosing) of the same compound?
Answer: Its value is 4 h.

Question: And the accumulation ([1]; twice-daily)?
Answer: Its accumulation is ~1.6 fold.

Question: What about the IC50 [2] of the same compound?
Answer: Its IC50 is 265 pM.

Question: And the AUC(0-inf) (clinical; 100 mg)?
Answer: The AUC(0-inf) was 16.5 ng·h/mL.

Question: What about the AUC(0-inf) (clinical; 300 mg) of the same compound?
Answer: The AUC(0-inf) was 57.6 ± 23.6 ng·h/mL.

Question: What about the AUC(0-t) (clinical; 450 mg) of the same compound?
Answer: The AUC(0-t) was 77.6 ± 37.1 ng·h/mL.

Question: What about the AUC (clinical; 450 mg) of the same compound?
Answer: Its AUC is 41.5 ± 10.7 ng·h/mL.

Question: What about the Cmax (clinical; 450 mg) of the same compound?
Answer: The Cmax was 9.96 ng/mL.

Question: What about the AUC(0-inf) (clinical; 900 mg) of the same compound?
Answer: Its AUC(0-inf) is 176 ± 98.5 ng·h/mL.

Question: What about the AUC(0-t) (clinical; 900 mg) of the same compound?
Answer: The AUC(0-t) was 159 ± 70.5 ng·h/mL.

Question: And the AUC (clinical; 900 mg)?
Answer: Its AUC is 159 ± 70.5 ng·h/mL.

Question: What about the Cmax (clinical; 900 mg) of the same compound?
Answer: Its Cmax is 14.2 ng/mL.

Question: What about the AUC(0-inf) (clinical; 1000 mg) of the same compound?
Answer: The AUC(0-inf) was 151 ± 31.7 ng·h/mL.

Question: What about the AUC(0-t) (clinical; 1000 mg) of the same compound?
Answer: The AUC(0-t) was 138 ± 33.7 ng·h/mL.

Question: What about the Cmax (clinical; 1000 mg) of the same compound?
Answer: The Cmax was 15.3 ± 4.11 ng/mL.

Question: What about the AUC(0-inf) (clinical; 1400 mg) of the same compound?
Answer: The AUC(0-inf) was 260 ng·h/mL.

Question: And the AUC(0-t) (clinical; 1400 mg)?
Answer: The AUC(0-t) was 257 ± 173 ng·h/mL.

Question: What about the Cmax (clinical; 1400 mg) of the same compound?
Answer: The Cmax was 23.5 ng/mL.

Question: And the “receptor occupancy in whole blood and Peyer's patches, 30 mg/kg vs 3 mg/kg dose group” value (α4β7 [3]; PO)?
Answer: Its value is “significantly higher”.

Question: What about the “receptor occupancy in Peyer's patches compared to whole blood” value (α4β7 [3]; both dose groups (3 and 30 mg/kg PO)) of the same compound?
Answer: Its value is “significantly higher”.

Question: What about the receptor occupancy at 30 mg/kg (α4β7 [3]; mouse, 30 mg/kg dose) of the same compound?
Answer: The receptor occupancy at 30 mg/kg was 100%.

Question: What about the “maximally tolerated dose, multiple dose (highest dose tested)” value ([4]; healthy volunteers) of the same compound?
Answer: Its value is 1000 mg.

Question: And the “maximally tolerated dose, single dose (highest dose tested)” value ([4]; healthy volunteers)?
Answer: The value was 1400 mg.

Question: What about the “subjects reporting AEs” value ([4]; multiple doses) of the same compound?
Answer: Its value is “Thirty”.

Question: And the “total AEs” value ([4]; multiple doses)?
Answer: Its value is 68 AEs.

Question: What about the QTc prolongation ([4]; single and multiple doses) of the same compound?
Answer: Its QTc prolongation is “no evidence of QTc prolongation was observed”.

Question: And the tolerability [4]?
Answer: Its tolerability is “generally well tolerated”.

Question: What about the tolerability ([4]; listed as COMPOUND A) of the same compound?
Answer: Its tolerability is “safe and well tolerated”.

Question: And the “TEAEs in subjects who received drug” value ([4]; single ascending dose phase)?
Answer: Its value is 21 events.

Question: And the “subjects with TEAEs who received drug” value ([4]; single ascending dose phase)?
Answer: The value was 12 subjects.

Question: And the dose-limiting toxicities ([4]; single doses up to 1400 mg, multiple up to 1000 mg)?
Answer: Its dose-limiting toxicities is “no dose-limiting toxicities observed”.

Question: And the “induced internalization of α4β7, time and concentration dependence” value (α4β7 [5]; CD4+ T memory cells, 10 nM for 0 to 48 h, 0-10 nM for 24 h)?
Answer: The value was “time (FIG. 15) and concentration (FIG. 16) dependent”.

Question: And the “Maximal α4β7 expression reduction (%)” value (α4β7 [5]; Donor 1, normalized to no-peptide control)?
Answer: The value was 53%.

Question: What about the “Maximal α4β7 expression reduction (%)” value (α4β7 [5]; Donor 2, normalized to no-peptide control) of the same compound?
Answer: The value was 25%.

Question: What about the “Maximal α4β7 expression reduction (%)” value (α4β7 [5]; Mean of two donors) of the same compound?
Answer: The value was 39%.

Question: What about the “additional incubation after washout until α4β7 expression recovered to control levels” value (α4β7 [5]; human PBMCs, 10 nM 24 h then washout) of the same compound?
Answer: The value was 5 days and 4 to 5 days.

Question: What about the “α4β7 expression MFI difference compared to FMO control (4219 MFI)” value (α4β7 [5]; human PBMCs, 10 nM, 24 h) of the same compound?
Answer: Its value is 20.6%.

Question: What about the “α4β7 expression as measured by MFI” value (α4β7 [5]; human PBMCs, 10 nM, 24 h, without MnCl2) of the same compound?
Answer: The value was 5090 MFI.

From patent US20230063321A1, “Methods for Treating Inflammatory Bowel Diseases with alpha4beta7 Integrin Antagonists” (Protagonist Therapeutics, Inc., priority 2020, published 2023)
